Where two headings read alike, the source gives them in different places.

This is an account of results in PMC3913255, “Ligand determinants of fatty acid activation of the pronociceptive ion channel TRPA1” (PeerJ, 2014).

Common to all, as to type: cell-based
One assay has as its target T1, CaV3.1 (Homo sapiens, UniProt O43497).
T1 construct: gene CACNA1G
The assay can be described thus: patch clamp recording of CaV3.[…] channels, […]. A general note: The patch-clamp technique gives a direct electrical read-out from membranes.

For assay [1], the target named is T2, hTRPA1 (Homo sapiens, UniProt O75762).
T2 construct: gene TRPA1
T2 sequence (O75762 whole entry): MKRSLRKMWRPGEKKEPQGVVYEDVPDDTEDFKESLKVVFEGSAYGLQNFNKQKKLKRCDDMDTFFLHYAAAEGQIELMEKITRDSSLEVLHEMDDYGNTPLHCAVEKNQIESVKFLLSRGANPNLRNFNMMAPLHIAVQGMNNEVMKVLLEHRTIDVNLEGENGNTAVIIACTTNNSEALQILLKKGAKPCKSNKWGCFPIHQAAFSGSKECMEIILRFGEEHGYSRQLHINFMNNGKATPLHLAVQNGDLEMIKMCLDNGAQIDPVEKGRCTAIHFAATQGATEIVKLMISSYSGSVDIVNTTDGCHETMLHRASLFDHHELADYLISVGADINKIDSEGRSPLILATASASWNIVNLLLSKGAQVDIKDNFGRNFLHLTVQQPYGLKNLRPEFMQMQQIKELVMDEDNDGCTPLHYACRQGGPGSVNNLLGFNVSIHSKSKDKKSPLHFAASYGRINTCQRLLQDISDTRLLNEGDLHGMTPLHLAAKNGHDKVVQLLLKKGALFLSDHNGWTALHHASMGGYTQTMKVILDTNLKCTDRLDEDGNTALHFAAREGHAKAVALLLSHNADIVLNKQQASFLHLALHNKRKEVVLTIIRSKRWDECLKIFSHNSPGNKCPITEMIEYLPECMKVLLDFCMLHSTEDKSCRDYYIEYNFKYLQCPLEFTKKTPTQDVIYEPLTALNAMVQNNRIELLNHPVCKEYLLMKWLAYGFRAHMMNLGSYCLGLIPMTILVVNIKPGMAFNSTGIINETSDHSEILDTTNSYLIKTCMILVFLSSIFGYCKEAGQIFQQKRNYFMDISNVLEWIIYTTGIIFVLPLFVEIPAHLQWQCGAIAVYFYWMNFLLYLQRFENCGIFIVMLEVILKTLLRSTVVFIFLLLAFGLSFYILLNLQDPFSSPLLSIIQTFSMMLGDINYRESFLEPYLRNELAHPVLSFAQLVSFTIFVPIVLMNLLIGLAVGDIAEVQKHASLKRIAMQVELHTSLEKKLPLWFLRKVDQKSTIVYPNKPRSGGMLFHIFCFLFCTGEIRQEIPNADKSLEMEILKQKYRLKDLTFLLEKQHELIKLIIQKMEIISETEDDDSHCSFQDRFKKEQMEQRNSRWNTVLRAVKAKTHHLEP
Description: calcium fluorescence assay in HEK […] cells expressing hTRPA1 ([…]). Conditions: HEK293; read-out: % increase in [Ca]i at 30 μM.

Assay [2] has as its target T2, hTRPA1. The description is as above. Conditions: HEK293; read-out: Change in RFU (% Predrug).
Assay [3] has as its target T2, hTRPA1. Described as above. Conditions: HEK293, read-out: % increase in [Ca]i at 30 μM.
The target of assay [4] is T2, hTRPA1. The assay can be described thus: calcium fluorescence assay and whole-cell patch clamp in HEK […] cells expressing hTRPA1.
The target in a further assay is T3, mTRPA1 (Mus musculus, UniProt Q8BLA8).
T3 construct: gene Trpa1
T3 sequence (Q8BLA8 whole entry): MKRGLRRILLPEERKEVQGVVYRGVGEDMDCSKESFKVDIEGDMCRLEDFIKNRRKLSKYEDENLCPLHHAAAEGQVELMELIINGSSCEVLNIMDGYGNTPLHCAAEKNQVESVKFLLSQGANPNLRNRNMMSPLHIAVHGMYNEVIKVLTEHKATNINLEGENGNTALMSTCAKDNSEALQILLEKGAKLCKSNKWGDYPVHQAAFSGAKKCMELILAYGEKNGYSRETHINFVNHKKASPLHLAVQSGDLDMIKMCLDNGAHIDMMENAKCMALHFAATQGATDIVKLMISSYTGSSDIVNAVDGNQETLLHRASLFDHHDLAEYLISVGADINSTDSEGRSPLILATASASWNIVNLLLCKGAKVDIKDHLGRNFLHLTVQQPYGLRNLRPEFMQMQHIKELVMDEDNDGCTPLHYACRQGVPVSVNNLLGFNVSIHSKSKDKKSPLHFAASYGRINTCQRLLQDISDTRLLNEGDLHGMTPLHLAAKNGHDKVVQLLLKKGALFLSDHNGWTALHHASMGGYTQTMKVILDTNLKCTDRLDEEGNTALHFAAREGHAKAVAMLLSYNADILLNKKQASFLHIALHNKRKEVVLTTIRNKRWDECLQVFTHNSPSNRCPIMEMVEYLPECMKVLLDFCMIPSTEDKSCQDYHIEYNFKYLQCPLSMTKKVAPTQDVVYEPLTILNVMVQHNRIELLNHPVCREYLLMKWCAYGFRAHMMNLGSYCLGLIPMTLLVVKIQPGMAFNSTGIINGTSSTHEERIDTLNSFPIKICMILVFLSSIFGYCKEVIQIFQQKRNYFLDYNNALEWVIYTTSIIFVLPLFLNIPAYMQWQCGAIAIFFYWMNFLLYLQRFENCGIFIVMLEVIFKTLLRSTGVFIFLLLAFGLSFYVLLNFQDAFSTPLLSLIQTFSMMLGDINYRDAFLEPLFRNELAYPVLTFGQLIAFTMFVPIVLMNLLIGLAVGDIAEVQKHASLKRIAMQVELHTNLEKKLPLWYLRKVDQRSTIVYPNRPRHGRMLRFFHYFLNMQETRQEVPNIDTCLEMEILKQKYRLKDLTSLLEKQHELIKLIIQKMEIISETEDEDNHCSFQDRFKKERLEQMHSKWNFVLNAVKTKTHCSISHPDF
Description: calcium fluorescence assay in HEK […] cells expressing mouse TRPA1 ([…]). Conditions: HEK293; read-out: % of CA (300 μM) response at 100 μM.

Assay [5] deals with T2, hTRPA1. The assay can be described thus: calcium fluorescence assay and whole-cell patch clamp in HEK […] cells expressing hTRPA1. The source holds these as a separate data set.

T1 sequence (O43497 whole entry): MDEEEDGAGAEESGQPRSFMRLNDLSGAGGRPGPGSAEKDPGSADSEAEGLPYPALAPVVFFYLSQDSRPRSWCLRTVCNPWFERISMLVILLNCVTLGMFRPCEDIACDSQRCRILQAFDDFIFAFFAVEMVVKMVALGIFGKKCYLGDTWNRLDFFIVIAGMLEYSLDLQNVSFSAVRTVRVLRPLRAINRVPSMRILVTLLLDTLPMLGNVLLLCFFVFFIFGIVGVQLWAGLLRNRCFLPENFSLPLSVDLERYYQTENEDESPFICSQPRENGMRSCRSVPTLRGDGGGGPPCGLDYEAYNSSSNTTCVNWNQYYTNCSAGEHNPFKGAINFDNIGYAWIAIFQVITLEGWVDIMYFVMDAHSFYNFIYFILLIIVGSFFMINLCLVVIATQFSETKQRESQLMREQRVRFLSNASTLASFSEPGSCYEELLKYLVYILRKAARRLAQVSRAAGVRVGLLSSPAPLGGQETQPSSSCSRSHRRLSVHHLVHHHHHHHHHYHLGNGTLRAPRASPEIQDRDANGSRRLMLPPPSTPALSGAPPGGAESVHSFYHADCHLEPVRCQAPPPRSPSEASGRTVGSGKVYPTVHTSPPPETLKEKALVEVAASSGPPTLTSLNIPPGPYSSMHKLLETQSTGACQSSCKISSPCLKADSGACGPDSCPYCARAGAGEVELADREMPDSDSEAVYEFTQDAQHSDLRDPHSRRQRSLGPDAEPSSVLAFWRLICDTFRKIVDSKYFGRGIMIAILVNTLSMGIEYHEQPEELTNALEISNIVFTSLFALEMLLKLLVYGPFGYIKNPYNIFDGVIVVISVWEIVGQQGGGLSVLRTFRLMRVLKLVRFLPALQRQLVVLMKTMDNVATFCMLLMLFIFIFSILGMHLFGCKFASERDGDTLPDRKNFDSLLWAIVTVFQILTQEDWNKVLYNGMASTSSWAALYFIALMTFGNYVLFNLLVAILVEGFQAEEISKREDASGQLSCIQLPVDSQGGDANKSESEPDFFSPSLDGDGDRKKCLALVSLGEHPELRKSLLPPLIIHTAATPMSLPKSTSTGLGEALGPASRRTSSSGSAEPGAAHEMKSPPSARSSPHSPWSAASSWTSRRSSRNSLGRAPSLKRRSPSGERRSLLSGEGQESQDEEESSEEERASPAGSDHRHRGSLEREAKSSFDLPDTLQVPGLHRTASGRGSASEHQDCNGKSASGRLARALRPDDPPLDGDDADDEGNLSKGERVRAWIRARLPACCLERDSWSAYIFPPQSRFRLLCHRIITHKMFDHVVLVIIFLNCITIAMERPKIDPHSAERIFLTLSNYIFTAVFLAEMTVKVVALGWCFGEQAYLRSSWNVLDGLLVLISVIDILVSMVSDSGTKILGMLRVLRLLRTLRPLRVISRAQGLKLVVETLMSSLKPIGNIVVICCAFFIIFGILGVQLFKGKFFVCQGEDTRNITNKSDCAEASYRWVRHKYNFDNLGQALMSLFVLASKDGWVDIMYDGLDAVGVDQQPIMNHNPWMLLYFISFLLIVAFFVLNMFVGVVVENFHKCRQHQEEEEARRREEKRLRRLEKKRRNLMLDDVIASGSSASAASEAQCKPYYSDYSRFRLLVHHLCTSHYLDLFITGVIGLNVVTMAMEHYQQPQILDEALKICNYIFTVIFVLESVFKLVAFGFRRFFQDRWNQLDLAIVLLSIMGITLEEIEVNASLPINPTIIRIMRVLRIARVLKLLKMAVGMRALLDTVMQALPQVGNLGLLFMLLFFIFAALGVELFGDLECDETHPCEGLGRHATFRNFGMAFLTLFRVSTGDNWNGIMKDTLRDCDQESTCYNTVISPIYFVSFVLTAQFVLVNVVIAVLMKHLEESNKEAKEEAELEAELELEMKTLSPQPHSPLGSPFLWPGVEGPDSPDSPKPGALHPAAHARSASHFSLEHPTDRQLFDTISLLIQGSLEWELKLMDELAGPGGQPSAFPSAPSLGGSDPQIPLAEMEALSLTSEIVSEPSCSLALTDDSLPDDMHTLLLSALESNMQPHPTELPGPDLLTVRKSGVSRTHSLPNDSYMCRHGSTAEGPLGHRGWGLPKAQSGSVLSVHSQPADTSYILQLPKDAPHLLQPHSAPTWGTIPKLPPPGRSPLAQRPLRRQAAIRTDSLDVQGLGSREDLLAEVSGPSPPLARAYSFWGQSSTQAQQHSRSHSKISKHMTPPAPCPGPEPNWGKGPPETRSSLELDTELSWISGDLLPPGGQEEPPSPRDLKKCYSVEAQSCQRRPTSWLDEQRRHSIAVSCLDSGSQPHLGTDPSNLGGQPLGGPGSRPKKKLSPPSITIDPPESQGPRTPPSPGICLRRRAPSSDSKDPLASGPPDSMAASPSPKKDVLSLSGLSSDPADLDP

As usually defined, the inhibition is how much of the control response was suppressed. Read a low inhibition as a weak effect. In turn, `CCCCC/C=C\C/C=C\C/C=C\C/C=C\CCCCCC(=O)O` [adrenic acid] showed an inhibition at 10 µM against CaV3.1 of 64 ± 8%.

Turning to `CCCCC/C=C\C/C=C\C/C=C\C/C=C\CCCC(=O)NCCO` [AEA, anandamide], on hTRPA1 [1], the activation at 30 µM worked out at 227 ± 42%.

Consider `CCCCC/C=C\C/C=C\C/C=C\C/C=C\CCCC(=O)OC` [AA-ME, Arachidonic acid methyl ester], for which, on hTRPA1 [2], the activation at 30 µM was determined as 302 ± 53%.

On to `CCCCC/C=C\C/C=C\C/C=C\C/C=C\CCCC(=O)N[C@@H](Cc1ccc(O)cc1)C(=O)O` [NA-Tyr, N-arachidonoyl tyrosine], for which the activation at 30 µM on hTRPA1 [3] came to 172 ± 20%.

A word on the EC50: it is the concentration giving half of the maximal effect. Take `O=C/C=C/c1ccccc1` [CA, Cinnamaldehyde]: on hTRPA1 [4], the half-maximal effective concentration (EC50) is 11 ± 2 µM.

As for `CCCCC/C=C\C/C=C\C/C=C\C/C=C\CCCC(=O)O` [AA, ω6-arachidonic acid], at CaV3.1, 10 µM produced 81 ± 4% inhibition.

For the compound `CCCCC/C=C\C/C=C\C/C=C\C/C=C\CCCC(=O)O` [AA, arachidonic acid], on mTRPA1, the Emax at 100 µM was found to be 81 ± 4%. Moreover, the concentration giving a half-maximal response (EC50) at hTRPA1 [5] turned out to be 13 ± 4 µM.
